Measured values from article PMC4850841 (Journal of medicinal chemistry, 2013).
Where two headings read alike, the source gives them in different places. One block for each compound: values may come before it.

Experiments:
GluN1/GluN2A = GluN1/GluN2A (Rattus norvegicus, UniProt Q00959); assay: Two electrode voltage clamp recordings, Xenopus laevis oocytes; assay type: cell-based; conditions: 100 µM glutamate, 30 µM glycine
GluN1/GluN2B = GluN1/GluN2B (Rattus norvegicus, UniProt Q00960); assay: as above; assay type: cell-based; conditions: 100 µM glutamate, 30 µM glycine
GluK2 = GluK2 (Rattus norvegicus, UniProt P42260); assay: as above; assay type: cell-based; conditions: co-applied with 100 µM glutamate
Sequence of GluK2 (P42260 32-908): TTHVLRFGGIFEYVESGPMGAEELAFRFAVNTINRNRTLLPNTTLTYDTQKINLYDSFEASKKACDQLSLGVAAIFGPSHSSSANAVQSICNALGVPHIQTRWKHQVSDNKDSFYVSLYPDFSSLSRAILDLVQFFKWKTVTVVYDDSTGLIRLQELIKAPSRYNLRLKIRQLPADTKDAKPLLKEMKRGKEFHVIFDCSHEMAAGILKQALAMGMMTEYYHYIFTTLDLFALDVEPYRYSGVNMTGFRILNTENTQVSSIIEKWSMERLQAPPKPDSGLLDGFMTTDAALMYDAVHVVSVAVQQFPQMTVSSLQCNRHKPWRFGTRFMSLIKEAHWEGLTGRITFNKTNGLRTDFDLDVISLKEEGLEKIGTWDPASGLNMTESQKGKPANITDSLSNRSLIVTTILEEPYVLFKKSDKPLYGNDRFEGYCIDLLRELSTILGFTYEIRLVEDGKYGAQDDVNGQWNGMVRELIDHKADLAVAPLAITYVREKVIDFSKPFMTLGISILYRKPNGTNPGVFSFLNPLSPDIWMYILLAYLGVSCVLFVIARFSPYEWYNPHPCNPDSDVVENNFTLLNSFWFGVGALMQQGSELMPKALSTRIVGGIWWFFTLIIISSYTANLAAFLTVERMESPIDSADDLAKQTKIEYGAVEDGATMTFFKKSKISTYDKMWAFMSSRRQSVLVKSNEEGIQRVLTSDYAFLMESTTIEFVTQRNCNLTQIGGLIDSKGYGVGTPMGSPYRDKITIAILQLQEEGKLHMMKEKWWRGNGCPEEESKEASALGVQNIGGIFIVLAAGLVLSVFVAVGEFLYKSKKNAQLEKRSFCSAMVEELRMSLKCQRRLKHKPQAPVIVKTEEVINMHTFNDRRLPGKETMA

[1] = test system: GluN2C/D-containing NMDA receptors; assay: Potentiation of NMDA receptors, results stated jointly for both subtypes; assay type: cell-based, rat; conditions: for EC50: read-out: EC50, GluN2C/GluN2D stated jointly
GluA1 = GluA1 (Rattus norvegicus, UniProt P19490); assay: Two electrode voltage clamp recordings, Xenopus laevis oocytes; assay type: cell-based; conditions: co-applied with 100 µM glutamate
Sequence of GluA1 (P19490 19-907): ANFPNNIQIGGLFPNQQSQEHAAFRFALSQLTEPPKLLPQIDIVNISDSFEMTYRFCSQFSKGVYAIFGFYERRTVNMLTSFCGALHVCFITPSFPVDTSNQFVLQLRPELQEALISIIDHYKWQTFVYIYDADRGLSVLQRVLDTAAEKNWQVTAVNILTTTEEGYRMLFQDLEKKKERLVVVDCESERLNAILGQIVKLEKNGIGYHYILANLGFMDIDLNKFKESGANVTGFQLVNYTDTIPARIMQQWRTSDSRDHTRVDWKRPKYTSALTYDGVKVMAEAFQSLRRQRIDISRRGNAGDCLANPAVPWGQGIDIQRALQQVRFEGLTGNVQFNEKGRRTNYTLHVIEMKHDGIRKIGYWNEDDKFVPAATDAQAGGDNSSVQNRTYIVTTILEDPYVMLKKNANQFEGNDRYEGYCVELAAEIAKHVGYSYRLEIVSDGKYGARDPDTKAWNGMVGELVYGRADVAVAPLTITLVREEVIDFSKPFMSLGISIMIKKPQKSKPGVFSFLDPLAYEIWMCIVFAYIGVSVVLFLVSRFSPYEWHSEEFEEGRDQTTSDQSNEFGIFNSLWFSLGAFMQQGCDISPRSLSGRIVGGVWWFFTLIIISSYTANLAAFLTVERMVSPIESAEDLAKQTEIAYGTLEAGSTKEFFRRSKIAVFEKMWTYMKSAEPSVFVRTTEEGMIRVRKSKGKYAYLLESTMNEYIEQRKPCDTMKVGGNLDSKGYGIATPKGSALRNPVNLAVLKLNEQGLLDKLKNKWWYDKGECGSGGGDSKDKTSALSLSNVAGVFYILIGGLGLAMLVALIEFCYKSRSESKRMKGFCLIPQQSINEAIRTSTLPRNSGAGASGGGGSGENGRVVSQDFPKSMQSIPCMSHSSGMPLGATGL

[2] = test system: GluN2C/D-containing NMDA receptors; conditions: cited from earlier work
GluN1/GluN2C [3] = biological target: GluN1/GluN2C (Rattus norvegicus, UniProt P35439+Q00961); assay: Two electrode voltage clamp recordings, Xenopus laevis oocytes; assay type: cell-based
Sequence of GluN1/GluN2C (Rattus norvegicus, UniProt P35439+Q00961) (Q00961 20-1237, other chains not shown): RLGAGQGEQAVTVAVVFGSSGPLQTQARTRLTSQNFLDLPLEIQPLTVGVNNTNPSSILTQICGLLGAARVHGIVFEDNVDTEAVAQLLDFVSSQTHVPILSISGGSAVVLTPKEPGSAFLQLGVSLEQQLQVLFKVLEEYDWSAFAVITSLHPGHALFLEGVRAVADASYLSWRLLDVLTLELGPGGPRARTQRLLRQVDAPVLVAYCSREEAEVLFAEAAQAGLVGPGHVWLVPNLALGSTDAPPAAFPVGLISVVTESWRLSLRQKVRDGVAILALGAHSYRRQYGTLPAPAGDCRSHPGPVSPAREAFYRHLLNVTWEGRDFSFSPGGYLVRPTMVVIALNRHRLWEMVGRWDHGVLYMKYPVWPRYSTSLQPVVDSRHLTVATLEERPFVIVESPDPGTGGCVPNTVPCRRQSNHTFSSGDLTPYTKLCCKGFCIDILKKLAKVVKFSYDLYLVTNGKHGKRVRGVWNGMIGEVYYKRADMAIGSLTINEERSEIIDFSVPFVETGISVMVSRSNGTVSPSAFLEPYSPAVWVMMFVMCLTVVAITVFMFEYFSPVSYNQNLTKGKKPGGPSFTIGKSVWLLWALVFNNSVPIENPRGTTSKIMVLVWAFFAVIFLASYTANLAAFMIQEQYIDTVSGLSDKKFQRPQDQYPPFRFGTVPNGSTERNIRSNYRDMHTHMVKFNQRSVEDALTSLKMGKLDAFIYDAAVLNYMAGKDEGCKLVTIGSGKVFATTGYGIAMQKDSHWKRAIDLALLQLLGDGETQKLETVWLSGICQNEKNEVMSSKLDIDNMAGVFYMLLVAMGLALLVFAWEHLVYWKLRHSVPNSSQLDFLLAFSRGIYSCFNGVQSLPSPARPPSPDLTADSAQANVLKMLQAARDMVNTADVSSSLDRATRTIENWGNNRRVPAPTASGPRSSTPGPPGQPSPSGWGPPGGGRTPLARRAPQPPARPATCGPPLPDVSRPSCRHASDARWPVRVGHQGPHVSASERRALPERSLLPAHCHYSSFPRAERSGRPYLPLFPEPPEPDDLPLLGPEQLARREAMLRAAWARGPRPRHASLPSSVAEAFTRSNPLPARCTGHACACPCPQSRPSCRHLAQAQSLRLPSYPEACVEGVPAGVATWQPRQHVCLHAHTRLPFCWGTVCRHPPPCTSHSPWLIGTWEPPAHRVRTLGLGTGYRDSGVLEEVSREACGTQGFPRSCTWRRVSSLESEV

[4] = Stability of potentiator activity of compound solution; assay type: physicochemical
GluN1/GluN2D = GluN1/GluN2D (Rattus norvegicus, UniProt Q62645); assay: Two electrode voltage clamp recordings, Xenopus laevis oocytes; assay type: cell-based; conditions: for activity at GluN1/GluN2D: 100 µM glutamate, 30 µM glycine
Sequence of GluN1/GluN2D (Q62645 28-1323, other chains not shown): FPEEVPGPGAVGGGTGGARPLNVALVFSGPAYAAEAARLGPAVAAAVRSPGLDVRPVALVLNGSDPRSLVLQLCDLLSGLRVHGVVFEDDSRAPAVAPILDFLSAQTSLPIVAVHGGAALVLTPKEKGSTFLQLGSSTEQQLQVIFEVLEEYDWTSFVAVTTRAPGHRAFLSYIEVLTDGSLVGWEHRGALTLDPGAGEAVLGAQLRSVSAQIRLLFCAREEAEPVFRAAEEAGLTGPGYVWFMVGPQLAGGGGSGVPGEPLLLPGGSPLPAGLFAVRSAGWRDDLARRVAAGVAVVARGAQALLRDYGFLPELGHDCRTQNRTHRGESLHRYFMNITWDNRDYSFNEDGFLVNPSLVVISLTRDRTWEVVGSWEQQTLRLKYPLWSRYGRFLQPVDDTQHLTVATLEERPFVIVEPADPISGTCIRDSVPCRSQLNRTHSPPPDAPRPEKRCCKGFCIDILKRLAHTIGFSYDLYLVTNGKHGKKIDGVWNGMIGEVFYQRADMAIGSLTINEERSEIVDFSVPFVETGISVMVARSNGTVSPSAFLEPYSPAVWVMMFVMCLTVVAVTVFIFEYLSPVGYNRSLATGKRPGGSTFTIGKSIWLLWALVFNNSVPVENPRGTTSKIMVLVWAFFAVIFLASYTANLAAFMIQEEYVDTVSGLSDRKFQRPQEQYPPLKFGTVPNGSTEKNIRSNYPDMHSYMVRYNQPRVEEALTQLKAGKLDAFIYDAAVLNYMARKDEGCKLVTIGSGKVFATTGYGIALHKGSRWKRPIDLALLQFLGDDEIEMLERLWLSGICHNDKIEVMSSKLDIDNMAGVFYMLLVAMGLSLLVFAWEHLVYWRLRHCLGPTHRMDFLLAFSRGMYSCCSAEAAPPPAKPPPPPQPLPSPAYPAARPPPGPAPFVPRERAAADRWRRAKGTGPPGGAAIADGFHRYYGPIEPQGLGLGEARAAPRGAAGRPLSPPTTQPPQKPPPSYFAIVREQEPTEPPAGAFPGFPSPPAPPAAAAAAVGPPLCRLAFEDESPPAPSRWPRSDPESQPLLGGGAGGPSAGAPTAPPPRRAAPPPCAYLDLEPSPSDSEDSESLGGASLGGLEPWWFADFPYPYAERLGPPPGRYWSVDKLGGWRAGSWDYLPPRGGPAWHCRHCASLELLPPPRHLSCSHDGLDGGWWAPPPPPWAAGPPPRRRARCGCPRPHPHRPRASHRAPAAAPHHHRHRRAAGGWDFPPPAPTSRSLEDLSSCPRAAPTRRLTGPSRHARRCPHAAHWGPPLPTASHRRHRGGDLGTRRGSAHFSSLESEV

GluN1/GluN2C [5] = biological target: GluN1/GluN2C (Rattus norvegicus, UniProt Q00961); assay: as above; assay type: cell-based; conditions: for activity at GluN1/GluN2C: 100 µM glutamate, 30 µM glycine
Sequence of GluN1/GluN2C (Rattus norvegicus, UniProt Q00961) (Q00961 20-1237, other chains not shown): as the sequence (Q00961 20-1237, other chains not shown) above

sigma receptor σ2 = assay type: binding; conditions: 5 µM compound 83; n=4
[6] = test system: GABA, glycine, serotonin, nicotinic acetylcholine, AMPA, kainate, and purinergic receptors; assay type: cell-based
[7] = test system: brain benzodiazepine site; assay type: binding; conditions: 5 µM compound 83; n=4
κ opioid receptors = κ opioid receptors (Homo sapiens, UniProt P41145); assay type: binding; conditions: 5 µM compound 83
Sequence of κ opioid receptors (P41145 whole entry): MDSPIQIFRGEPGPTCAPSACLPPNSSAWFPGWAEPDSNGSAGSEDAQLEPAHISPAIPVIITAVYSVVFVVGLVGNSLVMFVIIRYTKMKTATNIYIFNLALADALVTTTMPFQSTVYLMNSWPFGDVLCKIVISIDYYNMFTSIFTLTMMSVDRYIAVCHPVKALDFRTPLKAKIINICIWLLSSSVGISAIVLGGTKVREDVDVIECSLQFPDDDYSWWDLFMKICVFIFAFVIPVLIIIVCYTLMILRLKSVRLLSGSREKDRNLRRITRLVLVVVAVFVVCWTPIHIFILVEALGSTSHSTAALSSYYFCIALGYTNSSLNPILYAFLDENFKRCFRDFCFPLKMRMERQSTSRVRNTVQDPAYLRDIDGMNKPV

[8] = test system: peripheral benzodiazepine site; assay type: binding; conditions: 5 µM compound 83; n=4
sigma receptor σ1 = assay type: binding; conditions: 5 µM compound 83; n=4
[9] = maximally effective concentrations of glutamate and glycine
[10] = 10 µM compound co-applied with 100 µM glutamate and 30 µM glycine

Compound: COc1ccc(OC[C@@H]2c3cc(OC)c(OC)cc3CCN2C(=O)c2cccc(Cl)c2)cc1 [2-S, (S)-(3-chlorophenyl)(6,7-dimethoxy-1-((4-methoxyphenoxy)methyl)-3,4-dihydroisoquinolin-2(1H)-yl)methanone]
effect on GluN1/GluN2A responses (GluN1/GluN2A): no effect
effect on GluN1/GluN2B responses (GluN1/GluN2B): no effect

Compound: COc1ccc(OCC2c3cc(OC)c(OC)cc3CCN2C(=O)c2ccccc2)cc1 (stereo not shown) [compound 1, (6,7-dimethoxy-1-((4-methoxyphenoxy)methyl)-3,4-dihydroisoquinolin-2(1H)-yl)(phenyl)methanone]
effect on GluK2-mediated currents (GluK2): no effect
enhancement of response of GluN2C/D-containing NMDA receptors [1, 9]: 1.5 fold
agonist activity on their own ([1]; without co-agonists): no agonist activity
effect on homomeric GluA1 responses (GluA1): no effects

Compound: COc1ccc(OCC2c3cc(OC)c(OC)cc3CCN2C(=O)c2cccc(Cl)c2)cc1 (stereo not shown) [compound 2]
effect on GluK2-mediated currents (GluK2): no effect
enhancement of receptor responses [2]: less than 2 fold
EC50 ([2]; read-out: reported EC50): 3 µM
EC50 [1, 9]: 4.6 to 5 µM
effect on homomeric GluA1 responses (GluA1): no effects
EC50 (GluN1/GluN2C [3]): 4.6 µM
activity of solution after 24 hours ([4]; 24 hours after making the solution): no activity
activity (potency and efficacy) retained without loss until ([4]; compound solutions tested on GluN1/GluN2C in BHK cells at different time points): 6 h

Compound: COc1cc2c(cc1OC)CN(C(=O)c1ccccc1)CC2 [compound 5, (6,7-dimethoxy-3,4-dihydroisoquinolin-2(1H)-yl)(phenyl)methanone]
effect on GluN1/GluN2A responses (GluN1/GluN2A): inactive
effect on homomeric GluA1 responses (GluA1): no effects
effect on GluN1/GluN2B responses (GluN1/GluN2B): inactive
activity at GluN1/GluN2D (GluN1/GluN2D): inactive
activity at GluN1/GluN2C (GluN1/GluN2C [5]): inactive

Compound: COc1cc2c(cc1OC)CN(C(=O)c1cccc(Cl)c1)CC2 [compound 6, (3-chlorophenyl)(6,7-dimethoxy-3,4-dihydroisoquinolin-2(1H)-yl)methanone]
effect on GluN1/GluN2A responses (GluN1/GluN2A): inactive
effect on GluN1/GluN2B responses (GluN1/GluN2B): inactive
activity at GluN1/GluN2D (GluN1/GluN2D): inactive
activity at GluN1/GluN2C (GluN1/GluN2C [5]): inactive

Compound: COc1cc2c(cc1OC)CN(C(=O)c1cccc(Br)c1)CC2 [compound 7, (3-bromophenyl)(6,7-dimethoxy-3,4-dihydroisoquinolin-2(1H)-yl)methanone]
effect on GluN1/GluN2A responses (GluN1/GluN2A): inactive
effect on GluN1/GluN2B responses (GluN1/GluN2B): inactive
activity at GluN1/GluN2D (GluN1/GluN2D): inactive
activity at GluN1/GluN2C (GluN1/GluN2C [5]): inactive

Compound: COc1ccc(OCC2c3ccc(OCc4ccccc4)cc3CCN2C(=O)c2cccc(Br)c2)cc1 (stereo not shown) [compound 83, (6-(benzyloxy)-1-((4-methoxyphenoxy)methyl)-3,4-dihydroisoquinolin-2(1H)-yl)(3-bromophenyl)methanone]
inhibition of ligand binding (sigma receptor σ2): less than 50%
EC50 [1, 9]: 0.3 to 0.4 µM
selectivity for GluN2C or GluN2D compared to these receptors [6]: approximately 100 fold
inhibition of off-target receptors ([6]; 3 µM compound 83): less than 10%
potentiation of off-target receptors ([6]; 3 µM compound 83): < 5%
inhibition of ligand binding [7]: less than 50%
initial screen at κ opioid receptors (κ opioid receptors): significant inhibition
inhibition of ligand binding [8]: less than 50%
inhibition of ligand binding (sigma receptor σ1): less than 50%

Compound: COc1ccc(OCC2c3ccc(OC)cc3CCN2C(=O)c2cccc(Br)c2)cc1 (stereo not shown) [compound 118, (3-bromophenyl)(6-methoxy-1-((4-methoxyphenoxy)methyl)-3,4-dihydroisoquinolin-2(1H)-yl)methanone]
effect on homomeric GluA1 responses (GluA1): no effects

Compound: COc1ccc(OCC2c3cc(OC)c(OC)cc3CCN2C(=O)c2ccc3ccccc3c2)cc1 (stereo not shown) [compound 138, (6,7-dimethoxy-1-((4-methoxyphenoxy)methyl)-3,4-dihydroisoquinolin-2(1H)-yl)(naphthalen-2-yl)methanone]
effect on homomeric GluA1 responses (GluA1): no effects

Compound: COc1ccc(OCC2c3cc(OC)c(OC)cc3CCN2C(=O)CN2CCOCC2)cc1 (stereo not shown) [compound 140, 1-(6,7-dimethoxy-1-((4-methoxyphenoxy)methyl)-3,4-dihydroisoquinolin-2(1H)-yl)-2-morpholinoethanone]
effect on homomeric GluA1 responses (GluA1): no effects

Compound: COc1ccc(/C=C/C2c3cc(OC)c(OC)cc3CCN2C(=O)c2ccccc2)cc1 (stereo not shown) [compound 155, (E)-(6,7-dimethoxy-1-(4-methoxystyryl)-3,4-dihydroisoquinolin-2(1H)-yl)(phenyl)methanone]
effect on homomeric GluA1 responses (GluA1): no effects

Compound: (1-((4-(benzyloxy)phenoxy)methyl)-6,7-dimethoxy-3,4-dihydroisoquinolin-2(1H)-yl)(3-chlorophenyl)methanone [compound 109]
activity on GluN2C- or GluN2D-containing receptors [1]: no detectable activity
I10 µM / ICONTROL (mean ± SEM, %) GluN2D (GluN1/GluN2D; [10]): 93 ± 2.5%
I10 µM / ICONTROL (mean ± SEM, %) GluN2C (GluN1/GluN2C [5]; [10]): 93 ± 1.6%

The next lines start with the values.

effect on homomeric GluA1 responses (GluA1): no effects
Compound: COc1ccc(/C=C/C2c3cc(OC)c(OC)cc3CCN2C(=O)c2cccc(Br)c2)cc1 (stereo not shown) [compound 157, (E)-(3-bromophenyl)(6,7-dimethoxy-1-(4-methoxystyryl)-3,4-dihydroisoquinolin-2(1H)-yl)methanone]

effect on homomeric GluA1 responses (GluA1): no effects
Compound: COc1ccc(/C=C/C2c3ccc(OC)cc3CCN2C(=O)c2cccc(Cl)c2)cc1 (stereo not shown) [compound 158, (E)-(3-chlorophenyl)(6-methoxy-1-(4-methoxystyryl)-3,4-dihydroisoquinolin-2(1H)-yl)methanone]

effect on homomeric GluA1 responses (GluA1): no effects
Compound: COc1ccc(/C=C/C2c3ccc(OC)cc3CCN2C(=O)c2cccc(Br)c2)cc1 (stereo not shown) [compound 159, (E)-(3-bromophenyl)(6-methoxy-1-(4-methoxystyryl)-3,4-dihydroisoquinolin-2(1H)-yl)methanone]

effect on homomeric GluA1 responses (GluA1): no effects
Compound: COc1ccc(CCC2c3cc(OC)c(OC)cc3CCN2C(=O)c2cccc(Cl)c2)cc1 (stereo not shown) [compound 161, (3-chlorophenyl)(6,7-dimethoxy-1-(4-methoxyphenethyl)-3,4-dihydroisoquinolin-2(1H)-yl)methanone]

effect on homomeric GluA1 responses (GluA1): no effects
Compound: COc1ccc(CCC2c3cc(OC)c(OC)cc3CCN2C(=O)c2cccc(Br)c2)cc1 (stereo not shown) [compound 162, (3-bromophenyl)(6,7-dimethoxy-1-(4-methoxyphenethyl)-3,4-dihydroisoquinolin-2(1H)-yl)methanone]

effect on GluK2-mediated currents (GluK2): no effect
effect on homomeric GluA1 responses (GluA1): no effects
Compound: COc1ccc(OCC2c3cc(OC)c(OC)cc3CCN2C(=O)c2cccc(Br)c2)cc1 (stereo not shown) [compound 190]

effect on GluK2-mediated currents (GluK2): no effect
effect on homomeric GluA1 responses (GluA1): no effects
Compound: COc1ccc(OCC2c3cc(OC)c(OC)cc3CCN2C(=O)c2cccc(F)c2)cc1 (stereo not shown) [compound 197]

activity at GluN1/GluN2D (GluN1/GluN2D): no or minimal potentiating effects
activity at GluN1/GluN2C (GluN1/GluN2C [5]): weak activity
Compound: COc1ccc(OCC2c3cc(OC)c(OC)cc3CCN2C(=O)c2cccs2)cc1 (stereo not shown) [compound 203]

activity at GluN1/GluN2C (GluN1/GluN2C [5]): weakly active
Compound: COC(=O)c1ccc(OCC2c3cc(OC)c(OC)cc3CCN2C(=O)c2cccc(Br)c2)cc1 (stereo not shown) [compound 207]
